Test system: 324938-238-R-J1-PDC complex spheroid growth, % test/control
Experiment: Anticancer human tumor 324938-238-R-J1-PDC patient-derived bladder carcinoma cell line growth inhibition [AhR]
Settings: for IC50: curve of first compound; for viability, T/C: stronger effect = lower value
Text: Multicellular complex tumor spheroid response to aryl hydrocarbon receptor antagonists in combination with a variety of drugs and investigational agents in selected tumor cell lines
The current study was undertaken to assess response to aryl hydrocarbon receptor antagonists in combination with standard-of-care drugs and investigational agents in solid tumor complex spheroid models. Complex spheroids include a stromal component modeled by human endothelial cells (HUVEC) and fibroblasts modeled by human mesenchymal stem cells (MSCs). The concentration ranges selected for each drug and investigational agent were based upon clinically achievable concentrations if the clinical Cmax of the agent was known.
Compounds. The drugs and investigational agents: BAY 2416964 (NSC825713), GNF351 (NSC835774), CH-223191 (NSC835775), CPI-455 (NSC825282), aza-TdCyd (NSC777586), decitabine (NSC127716), belinostat (NSC758774), entinostat (NSC756642), pevonedistat (NSC761192), tazemetostat (NSC777109), talazoparib (NSC765396), olaparib (NSC753686), selinexor (NSC780203), nedisertib (M3814, NSC802822), bortezomib (NSC756655), venetoclax (NSC766270), doxorubicin (NSC123127), elimusertib (BAY189344, NSC800525), ceralasertib (AZD6738, NSC777638), TAK-243 (NSC785004), alisertib (NSC759677), etoposide (NSC141540), topotecan (NSC609699), eribulin (NSC707389), gemcitabine (NSC613327), carboplatin (NSC241240), cisplatin (NSC119875), and SN-38 (NSC673596) were obtained from the National Cancer Institute (NCI) Developmental Therapeutics Program Chemical Repository (32). The FDA-approved anticancer drug set is available from the Developmental Therapeutics Program at https://dtp.cancer.gov/organization/dscb/obtaining/available plates.htm. […] The stock solutions were prepared in dimethyl sulfoxide (DMSO, Sigma-Aldrich, St. Louis, MO, cat. D2650), except for the platinum compounds which were prepared in saline (Quality Biological, Gaithersburg, MD, cat. 114-055-101), at 800-fold the tested concentration and stored at -70 degrees C prior to their use. All drugs and investigational agents were tested over a range starting from a high concentration at or near the clinical Cmax and decreasing in half-log increments. If the clinical Cmax for an agent had not been determined, the highest concentration tested was 10 microM (Table 1).
Cell Culture. All cells were maintained in an incubator at 37 degrees C and 5% CO2 with 95% humidity. The PDC lines were cultured according to standard operating procedures established by the NCI PDMR (https://pdmr.cancer.gov). Briefly, all PDCs were thawed and cultured in Matrigel-coated flasks prepared with a working solution of 1X Ham's F-12 nutrient mix, without supplementation (Invitrogen, Waltham, MA, cat. 11765054), 100 U/mL penicillin-streptomycin (Invitrogen, cat. 15140122), and 2.5% Matrigel (Corning Inc., Corning, NY, cat. 354248) for the first three passages. All PDCs were cultured in complete DMEM/F-12 media containing advanced DMEM/F-12 (Invitrogen, cat. 12634028), 4.9% defined fetal bovine serum, heat inactivated (HyClone Laboratories Inc., Logan, UT, cat. SH30070.03HI), 389 ng/mL hydrocortisone (Sigma-Aldrich, cat. H4001), 9.7 ng/mL human EGF recombinant protein (Invitrogen, cat. PHG0313), 23.4 microg/mL adenine (Sigma-Aldrich, cat. A2786), 97.3 U/mL penicillin-streptomycin (Invitrogen, cat. 15140122), 1.9 mM L-glutamine (Invitrogen, cat. 25030081), and 9.7 microM Y-27632 dihydrochloride (Tocris Bioscience, Bristol, United Kingdom, cat. 1254). The PDCs were cultured in complete DMEM/F12 media without 10 microM Y-27632 dihydrochloride for at least two passages prior to the screen. The established cell lines NCI-H1341 and […] were cultured in DMEM/F-12, HEPES (Invitrogen, cat. 11330032), 5% defined fetal bovine serum (HyClone Laboratories Inc., cat. SH30070.03), ITS premix universal culture supplement [insulin (5 microg/mL), transferrin (5 microg/mL), and selenious acid (5 ng/mL)] […]

[1] = second compound 0.1 µM, first compound 0.000316 µM
[2] = second compound 0.1 µM, first compound 0.001 µM
[3] = second compound 0.1 µM, first compound 0.00316 µM
[4] = second compound 0.1 µM, first compound 0.01 µM
[5] = second compound 0.1 µM, first compound 0.0316 µM
[6] = second compound 0.1 µM, first compound 0.1 µM
[7] = second compound 0.316 µM, first compound 0.000316 µM
[8] = second compound 0.316 µM, first compound 0.001 µM
[9] = second compound 0.316 µM, first compound 0.00316 µM
[10] = second compound 0.316 µM, first compound 0.01 µM
[11] = second compound 0.316 µM, first compound 0.0316 µM
[12] = second compound 0.316 µM, first compound 0.1 µM
[13] = second compound 1 µM, first compound 0.000316 µM
[14] = second compound 1 µM, first compound 0.001 µM
[15] = second compound 1 µM, first compound 0.00316 µM
[16] = second compound 1 µM, first compound 0.01 µM
[17] = second compound 1 µM, first compound 0.0316 µM
[18] = second compound 1 µM, first compound 0.1 µM
[19] = second compound 3.16 µM, first compound 0.000316 µM
[20] = second compound 3.16 µM, first compound 0.001 µM
[21] = second compound 3.16 µM, first compound 0.00316 µM
[22] = second compound 3.16 µM, first compound 0.01 µM
[23] = second compound 3.16 µM, first compound 0.0316 µM
[24] = second compound 3.16 µM, first compound 0.1 µM
[25] = second compound 10 µM, first compound 0.000316 µM
[26] = second compound 10 µM, first compound 0.001 µM
[27] = second compound 10 µM, first compound 0.00316 µM
[28] = second compound 10 µM, first compound 0.01 µM
[29] = second compound 10 µM, first compound 0.0316 µM
[30] = second compound 10 µM, first compound 0.1 µM
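Further: spheroids exposed to agents for seven days before viability read.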

| SMILES | IC50 (second compound 0.1 µM) | IC50 (second compound 0.316 µM) | IC50 (second compound 1 µM) | IC50 (second compound 3.16 µM) | IC50 (second compound 10 µM) | viability, T/C [1] | viability, T/C [2] | viability, T/C [3] | viability, T/C [4] | viability, T/C [5] | viability, T/C [6] | viability, T/C [7] | viability, T/C [11] | viability, T/C [12] | viability, T/C [17] | viability, T/C [18] | viability, T/C [23] | viability, T/C [24] | viability, T/C [29] | viability, T/C [30] | further results |
| --- | --- | --- | --- | --- | --- | --- | --- | --- | --- | --- | --- | --- | --- | --- | --- | --- | --- | --- | --- | --- | --- |
| CC[C@@]1(O)C(=O)OCc2c1cc1n(c2=O)Cc2cc3c(CN(C)C)c(O)ccc3nc2-1 + CC(CO)NC(=O)c1cc(-c2ccc(Cl)cc2)nn(-c2cnn(C)c2)c1=O | 0.0277 µM | 0.0204 µM | 0.0219 µM | 0.0142 µM | 0.0168 µM | 106% | 103% | 89.7% | 80.2% | 44.6% | 16.7% | 102% | 36.5% | 18.1% | 39.4% | 17.6% | 32.4% | 21% | 40.4% | 22.6% | viability, T/C [8]: 106%; viability, T/C [9]: 100%; viability, T/C [10]: 72.6%; viability, T/C [13]: 87.4%; viability, T/C [14]: 97.9%; viability, T/C [15]: 89.6%; viability, T/C [16]: 73%; viability, T/C [19]: 74%; viability, T/C [20]: 85.4%; viability, T/C [21]: 76.3%; viability, T/C [22]: 57.2%; viability, T/C [25]: 69.4%; viability, T/C [26]: 69.7%; viability, T/C [27]: 61.4%; viability, T/C [28]: 59.6% |
| CC[C@@]1(O)C(=O)OCc2c1cc1n(c2=O)Cc2cc3c(CN(C)C)c(O)ccc3nc2-1 + Cc1cncc(-c2nc(NCCc3c[nH]c4ccccc34)c3ncn(C(C)C)c3n2)c1 | > 0.1 µM | > 0.1 µM | > 0.1 µM | > 0.1 µM | < 0.000316 µM | 108% | 151% | 99.7% | 117% | 83.3% | 102% | 70.6% | 77.8% | 93.5% | 87.6% | 96.9% | 79% | 79.4% | 3.79% | 10.3% | viability, T/C [8]: 91.9%; viability, T/C [9]: 124%; viability, T/C [10]: 93.2%; viability, T/C [13]: 116%; viability, T/C [14]: 110%; viability, T/C [15]: 114%; viability, T/C [16]: 93.4%; viability, T/C [19]: 97.8%; viability, T/C [20]: 71.7%; viability, T/C [21]: 87.3%; viability, T/C [22]: 90.9%; viability, T/C [25]: 5.23%; viability, T/C [26]: 3.61%; viability, T/C [27]: 4.43%; viability, T/C [28]: 3.43% |
| COc1cccc2c1C(=O)c1c(O)c3c(c(O)c1C2=O)CC(O)(C(=O)CO)CC3OC1CC(N)C(O)C(C)O1 (stereo not given) + Cc1cncc(-c2nc(NCCc3c[nH]c4ccccc34)c3ncn(C(C)C)c3n2)c1 | 0.336 µM | 0.367 µM | 0.291 µM | 0.181 µM | < 0.0316 µM |  |  |  |  | 84.2% | 95.7% |  | 65.7% | 94.2% | 90.7% | 102% | 81.8% | 62.1% | 4.55% | 12.7% | viability, T/C (second compound 0.1 µM, first compound 0.316 µM): 52.8%; viability, T/C (second compound 0.1 µM, first compound 1 µM): 0.98%; viability, T/C (second compound 0.1 µM, first compound 3.16 µM): 0.76%; viability, T/C (second compound 0.1 µM, first compound 10 µM): 0.41%; viability, T/C (second compound 0.316 µM, first compound 0.316 µM): 57.3%; viability, T/C (second compound 0.316 µM, first compound 1 µM): 0.94%; viability, T/C (second compound 0.316 µM, first compound 3.16 µM): 0.57%; viability, T/C (second compound 0.316 µM, first compound 10 µM): 0.38%; viability, T/C (second compound 1 µM, first compound 0.316 µM): 46.3%; viability, T/C (second compound 1 µM, first compound 1 µM): 0.36%; viability, T/C (second compound 1 µM, first compound 3.16 µM): 1.27%; viability, T/C (second compound 1 µM, first compound 10 µM): 0.47%; viability, T/C (second compound 3.16 µM, first compound 0.316 µM): 38.9%; viability, T/C (second compound 3.16 µM, first compound 1 µM): 0.31%; viability, T/C (second compound 3.16 µM, first compound 3.16 µM): 1.98%; viability, T/C (second compound 3.16 µM, first compound 10 µM): 0.43%; viability, T/C (second compound 10 µM, first compound 0.316 µM): 1.27%; viability, T/C (second compound 10 µM, first compound 1 µM): 0.29%; viability, T/C (second compound 10 µM, first compound 3.16 µM): 0.45%; viability, T/C (second compound 10 µM, first compound 10 µM): 0.62% |

Reference: PubChem BioAssay AID1918995 (Molecular Pharmacology Branch, DTP, NCI, 2023)
